Assay results: US20250340557A1, “PYRIMIDINE DERIVATIVE” (ASKA PHARMACEUTICAL CO., LTD., priority 2022, published 2025)

What follows are compounds tested against T1, human mPGES-1 (Homo sapiens, UniProt O14684) (assay: Test for mPGES-1 inhibitory activity (microsomal enzyme, PGE2 EIA)). Conditions: microsomes from COS-1 cells transfected with human mPGES-1 cDNA; substrate PGH2 1 μM; 4° C., 4 minutes; PGE2 measured by EIA; read-out: h mPGES1 IC50.
T1 construct: made in house; host or cells: COS-1 cells (transient transfection; microsomal fraction used as enzyme)
T1 sequence (O14684 1-152): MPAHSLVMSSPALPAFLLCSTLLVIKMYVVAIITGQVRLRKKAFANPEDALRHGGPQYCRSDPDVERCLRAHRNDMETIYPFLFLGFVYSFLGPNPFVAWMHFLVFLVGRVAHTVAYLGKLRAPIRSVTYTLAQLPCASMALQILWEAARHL
Type: biochemical
Outline: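 IC50 values were derived from EIA-quantified PGE2 after a 4 min, 4 °C reaction with PGH2 at 1 μM final, stopped with ferric chloride/citric acid. Beforehand, compound (2% DMSO final) sat 15 min at 4 °C with human mPGES-1 microsomes from transiently transfected COS-1 cells. Buffer was sodium phosphate pH 7.2 containing 2.5 mM reduced glutathione and 1 mM EDTA.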

IC50	Structure (SMILES)
< 1 nM	Cc1nc(-c2c(C(F)(F)F)ccc(CNC(=O)[C@H]3CC[C@H](OCc4ccc(F)c(F)c4)CC3)c2F)[nH]c(=O)c1F [Example 127, trans-4-[(3,4-difluorobenzyl)oxy]-N-[2-fluoro-3-(5-fluoro-4-methyl-6-oxo-1,6-dihydropyrimidin-2-yl)-4-(trifluoromethyl)benzyl]cyclohexane-1-carboxamide]
< 1 nM	O=c1cc(C(F)(F)F)nc(-c2c(C(F)(F)F)ccc(CNC(=O)[C@H]3C[C@@H](OCc4cccc(Cl)c4)C3)c2F)[nH]1 (stereo in doubt) [Example 139, cis-3-[(3-chlorobenzyl)oxy]-N-{2-fluoro-3-[6-oxo-4-(trifluoromethyl)-1,6-dihydropyrimidin-2-yl]-4-(trifluoromethyl)benzyl}cyclobutane-1-carboxamide]

Further lines, the compound ahead of its results:

Structure (SMILES)	IC50
O=C(NCc1ccc(C(F)(F)F)c(-c2nc(C(F)(F)F)cc(=O)[nH]2)c1F)C1CCN(c2ccc(Cl)cc2F)CC1 [Example 70, 1-(4-chloro-2-fluorophenyl)-N-{2-fluoro-3-[6-oxo-4-(trifluoromethyl)-1,6-dihydropyrimidin-2-yl]-4-(trifluoromethyl)benzyl}piperidine-4-carboxamide]	10 nM
Cc1nc(-c2c(C(F)(F)F)ccc(CNC(=O)C3CCN(c4ccc5cccc(C)c5n4)CC3)c2F)[nH]c(=O)c1C [Example 13, N-[3-(4,5-dimethyl-6-oxo-1,6-dihydropyrimidin-2-yl)-2-fluoro-4-(trifluoromethyl)benzyl]-1-(8-methylquinolin-2-yl)piperidine-4-carboxamide]	2.4 nM
O=c1cc(C(F)(F)F)nc(-c2c(C(F)(F)F)ccc(CNC(=O)[C@H]3CC[C@H](OCc4ccc(F)c(F)c4)CC3)c2F)[nH]1 [Example 115, trans-4-[(3,4-difluorobenzyl)oxy]-N-{2-fluoro-3-[6-oxo-4-(trifluoromethyl)-1,6-dihydropyrimidin-2-yl]-4-(trifluoromethyl)benzyl}cyclohexane-1-carboxamide]	21 nM
O=C(NCc1ccc(C(F)(F)F)c(-c2nc(C(F)F)cc(=O)[nH]2)c1F)C1CCN(c2ccc(Cl)c(Cl)c2)CC1 [Example 84, 1-(3,4-dichlorophenyl)-N-{3-[4-(difluoromethyl)-6-oxo-1,6-dihydropyrimidin-2-yl]-2-fluoro-4-(trifluoromethyl)benzyl}piperidine-4-carboxamide]	5.2 nM
Cc1cc(=O)[nH]c(-c2c(C(F)(F)F)ccc(CNC(=O)C3CCN(c4ncc(C(F)(F)F)cc4F)CC3)c2F)n1 [Example 49, N-[2-fluoro-3-(4-methyl-6-oxo-1,6-dihydropyrimidin-2-yl)-4-(trifluoromethyl)benzyl]-1-[3-fluoro-5-(trifluoromethyl)pyridin-2-yl]piperidine-4-carboxamide]	21 nM
Cc1cc(=O)[nH]c(-c2c(C(F)(F)F)ccc(CNC(=O)C3(F)CCN(c4ccc(C(F)(F)F)cn4)CC3)c2F)n1 [Example 56, 4-fluoro-N-[2-fluoro-3-(4-methyl-6-oxo-1,6-dihydropyrimidin-2-yl)-4-(trifluoromethyl)benzyl]-1-[5-(trifluoromethyl)pyridin-2-yl]piperidine-4-carboxamide]	21 nM
Cc1nc(-c2c(C(F)(F)F)ccc(CNC(=O)[C@H]3CC[C@H](OCc4cccc(Cl)c4)CC3)c2F)[nH]c(=O)c1F [Example 123, trans-4-[(3-chlorobenzyl)oxy]-N-[2-fluoro-3-(5-fluoro-4-methyl-6-oxo-1,6-dihydropyrimidin-2-yl)-4-(trifluoromethyl)benzyl]cyclohexane-1-carboxamide]	< 1 nM
Cc1cccc(N2CCC(C(=O)NCc3ccc(C(F)(F)F)c(-c4nc(C(F)(F)F)cc(=O)[nH]4)c3F)CC2)c1 [Example 59, N-{2-fluoro-3-[6-oxo-4-(trifluoromethyl)-1,6-dihydropyrimidin-2-yl]-4-(trifluoromethyl)benzyl}-1-(3-methylphenyl)piperidine-4-carboxamide]	4.2 nM
O=C(NCc1ccc(C(F)(F)F)c(-c2nc(C(F)(F)F)cc(=O)[nH]2)c1F)C1CCN(c2ccc(OC(F)(F)F)cc2)CC1 [Example 68, N-{2-fluoro-3-[6-oxo-4-(trifluoromethyl)-1,6-dihydropyrimidin-2-yl]-4-(trifluoromethyl)benzyl}-1-[4-(trifluoromethoxy)phenyl]piperidine-4-carboxamide]	< 1 nM
Cc1cc(=O)[nH]c(-c2c(C(F)(F)F)ccc(CNC(=O)C3CCN(c4ccc(OC(F)(F)F)cn4)CC3)c2F)n1 [Example 53, N-[2-fluoro-3-(4-methyl-6-oxo-1,6-dihydropyrimidin-2-yl)-4-(trifluoromethyl)benzyl]-1-[5-(trifluoromethoxy)pyridin-2-yl]piperidine-4-carboxamide]	49 nM
COc1cc(N2CCC(C(=O)NCc3ccc(C(F)(F)F)c(-c4nc(C(F)(F)F)cc(=O)[nH]4)c3F)CC2)ccc1Cl [Example 83, 1-(4-chloro-3-methoxyphenyl)-N-{2-fluoro-3-[6-oxo-4-(trifluoromethyl)-1,6-dihydropyrimidin-2-yl]-4-(trifluoromethyl)benzyl}piperidine-4-carboxamide]	7.1 nM

Same assay, conditions: microsomes of COS-1 cells transfected with human mPGES-1 cDNA; PGH2 1 μM; 4° C., 4 minutes; PGE2 by EIA; read-out: h mPGES1 IC50

IC50	Structure (SMILES)
15 nM	Cc1nc(-c2c(C(F)(F)F)ccc(CNC(=O)[C@H]3C[C@H](OCc4cccc(F)c4)C3)c2F)[nH]c(=O)c1F [Example 222, trans-N-[2-fluoro-3-(5-fluoro-4-methyl-6-oxo-1,6-dihydropyrimidin-2-yl)-4-(trifluoromethyl)benzyl]-3-[(3-fluorobenzyl)oxy]cyclobutane-1-carboxamide]
6.5 nM	CCc1cc(=O)[nH]c(-c2c(C(F)(F)F)ccc(CNC(=O)[C@H]3C[C@H](OCc4ccc(C(F)(F)F)cc4)C3)c2F)n1 [Example 200, trans-N-[3-(4-ethyl-6-oxo-1,6-dihydropyrimidin-2-yl)-2-fluoro-4-(trifluoromethyl)benzyl]-3-{[4-(trifluoromethyl)benzyl]oxy}cyclobutane-1-carboxamide]
< 1 nM	O=c1cc(C(F)(F)F)nc(-c2c(C(F)(F)F)ccc(CNC(=O)[C@H]3C[C@H](OCc4cccc(F)c4)C3)c2F)[nH]1 [Example 152, trans-N-{2-fluoro-3-[6-oxo-4-(trifluoromethyl)-1,6-dihydropyrimidin-2-yl]-4-(trifluoromethyl)benzyl}-3-[(3-fluorobenzyl)oxy]cyclobutane-1-carboxamide]
3.2 nM	Cc1cc(=O)[nH]c(-c2c(C(F)(F)F)ccc(CNC(=O)[C@H]3C[C@H](OCc4ccc(F)c(F)c4)C3)c2F)n1 [Example 186, trans-3-[(3,4-difluorobenzyl)oxy]-N-[2-fluoro-3-(4-methyl-6-oxo-1,6-dihydropyrimidin-2-yl)-4-(trifluoromethyl)benzyl]cyclobutane-1-carboxamide]
10 nM	O=c1cc(C(F)F)nc(-c2c(C(F)(F)F)ccc(CNC(=O)[C@H]3C[C@H](OCc4cc(F)cc(Cl)c4)C3)c2F)[nH]1 [Example 177, trans-3-[(3-chloro-5-fluorobenzyl)oxy]-N-{3-[4-(difluoromethyl)-6-oxo-1,6-dihydropyrimidin-2-yl]-2-fluoro-4-(trifluoromethyl)benzyl}cyclobutane-1-carboxamide]
16 nM	Cc1nc(-c2c(C(F)(F)F)ccc(CNC(=O)[C@H]3C[C@H](OCc4ccc(C(F)(F)F)cc4)C3)c2F)[nH]c(=O)c1F [Example 217, trans-N-[2-fluoro-3-(5-fluoro-4-methyl-6-oxo-1,6-dihydropyrimidin-2-yl)-4-(trifluoromethyl)benzyl]-3-{[4-(trifluoromethyl)benzyl]oxy}cyclobutane-1-carboxamide]
< 1 nM	O=c1cc(C(F)(F)F)nc(-c2c(C(F)(F)F)ccc(CNC(=O)[C@H]3C[C@H](OCc4ccc(F)cc4F)C3)c2F)[nH]1 [Example 148, trans-3-[(2,4-difluorobenzyl)oxy]-N-{2-fluoro-3-[6-oxo-4-(trifluoromethyl)-1,6-dihydropyrimidin-2-yl]-4-(trifluoromethyl)benzyl}cyclobutane-1-carboxamide]
< 1 nM	O=C(NCc1ccc(C(F)(F)F)c(-c2nc(-c3ccc(C(F)(F)F)cn3)cc(=O)[nH]2)c1F)C1CC(OCc2ccccc2)C1 (stereo not drawn) [Example 266, 3-(benzyloxy)-N-(2-fluoro-3-{6-oxo-4-[5-(trifluoromethyl)pyridin-2-yl]-1,6-dihydropyrimidin-2-yl}-4-(trifluoromethyl)benzyl)cyclobutane-1-carboxamide]
< 1 nM	CCc1nc(-c2c(C(F)(F)F)ccc(CNC(=O)[C@H]3C[C@H](OCc4ccc(F)c(Cl)c4)C3)c2F)[nH]c(=O)c1F [Example 244, trans-3-[(3-chloro-4-fluorobenzyl)oxy]-N-[3-(4-ethyl-5-fluoro-6-oxo-1,6-dihydropyrimidin-2-yl)-2-fluoro-4-(trifluoromethyl)benzyl]cyclobutane-1-carboxamide]
< 1 nM	CCc1cc(=O)[nH]c(-c2c(C(F)(F)F)ccc(CNC(=O)[C@H]3C[C@H](OCc4ccc(F)cc4F)C3)c2F)n1 [Example 201, trans-3-[(2,4-difluorobenzyl)oxy]-N-[3-(4-ethyl-6-oxo-1,6-dihydropyrimidin-2-yl)-2-fluoro-4-(trifluoromethyl)benzyl]cyclobutane-1-carboxamide]
11 nM	Cc1nc(-c2c(C(F)(F)F)ccc(CNC(=O)[C@H]3C[C@H](OCc4cccc(Cl)c4)C3)c2F)[nH]c(=O)c1F [Example 213, trans-3-[(3-chlorobenzyl)oxy]-N-[2-fluoro-3-(5-fluoro-4-methyl-6-oxo-1,6-dihydropyrimidin-2-yl)-4-(trifluoromethyl)benzyl]cyclobutane-1-carboxamide]
